# Experimental data from PubChem BioAssay (NCI).
#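 Abbreviation: GI50, concentration required for 50% inhibition of growth. At the TGI there is no net growth.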
# How the values were obtained:
# Assay in all cases: NCI tumour cell line growth inhibition, 384-well format
# T-47D breast = tested on: T-47D breast
# MCF7 breast = tested on: MCF7 breast
# MDA-MB-231 breast = tested on: MDA-MB-231 breast
# U251 glioblastoma = tested on: U251 glioblastoma
# UACC-257 melanoma = tested on: UACC-257 melanoma
# SK-MEL-5 melanoma = tested on: SK-MEL-5 melanoma
# COLO 205 colon = tested on: COLO 205 colon
# MDA-MB-468 breast = tested on: MDA-MB-468 breast
# HCT-15 colon = tested on: HCT-15 colon
# CAKI-1 renal = tested on: CAKI-1 renal
# PC-3 prostate = tested on: PC-3 prostate
# SF-295 CNS = tested on: SF-295 CNS
# A549 NSCLC = tested on: A549 NSCLC
# HT29 colon = tested on: HT29 colon
# HOP-92 NSCLC = tested on: HOP-92 NSCLC
# K-562 leukemia = tested on: K-562 leukemia
# HOP-62 NSCLC = tested on: HOP-62 NSCLC
# OVCAR-5 ovarian = tested on: OVCAR-5 ovarian
# 786-0 renal = tested on: 786-0 renal
# TK-10 renal = tested on: TK-10 renal
# BT-549 breast = tested on: BT-549 breast
# UACC-62 melanoma = tested on: UACC-62 melanoma
# MALME-3M melanoma = tested on: MALME-3M melanoma
# SF-268 CNS = tested on: SF-268 CNS
# DU-145 prostate = tested on: DU-145 prostate
# NCI-H322M lung = tested on: NCI-H322M lung
# OVCAR-8 ovarian = tested on: OVCAR-8 ovarian
# SW-620 colon = tested on: SW-620 colon
# HCT-116 colon = tested on: HCT-116 colon
# RXF 393 renal = tested on: RXF 393 renal
# IGROV1 ovarian = tested on: IGROV1 ovarian
# OVCAR-3 ovarian = tested on: OVCAR-3 ovarian
# SNB-19 CNS = tested on: SNB-19 CNS
# UO-31 renal = tested on: UO-31 renal
# EKVX NSCLC = tested on: EKVX NSCLC
# SK-OV-3 ovarian = tested on: SK-OV-3 ovarian
# SNB-75 CNS = tested on: SNB-75 CNS
# LOX IMVI melanoma = tested on: LOX IMVI melanoma
# M14 melanoma = tested on: M14 melanoma
# NCI-H23 lung = tested on: NCI-H23 lung
# ACHN renal = tested on: ACHN renal
# A498 renal = tested on: A498 renal
# SN12C renal = tested on: SN12C renal
# NCI/ADR-RES ovarian = tested on: NCI/ADR-RES ovarian
# SK-MEL-28 melanoma = tested on: SK-MEL-28 melanoma
# RPMI-8226 leukemia = tested on: RPMI-8226 leukemia
# HL-60(TB) leukemia = tested on: HL-60(TB) leukemia
compound,measurement,setting,value
Cc1cc([C@H](C)Nc2nccc(N3C(=O)OC[C@@H]3[C@H](C)F)n2)ncc1-c1ccnc(C(F)(F)F)c1,GI50,T-47D breast,5.13 µM
same,TGI,T-47D breast,> 100 µM
same,GI50,MCF7 breast,25.8 µM
same,TGI,MCF7 breast,> 100 µM
same,GI50,MDA-MB-231 breast,46.4 µM
same,TGI,MDA-MB-231 breast,> 100 µM
same,GI50,U251 glioblastoma,36.4 µM
same,TGI,U251 glioblastoma,> 100 µM
same,GI50,UACC-257 melanoma,16.6 µM
same,TGI,UACC-257 melanoma,51.1 µM
same,GI50,SK-MEL-5 melanoma,10.2 µM
same,TGI,SK-MEL-5 melanoma,25.4 µM
same,GI50,COLO 205 colon,64.1 µM
same,TGI,COLO 205 colon,> 100 µM
same,GI50,MDA-MB-468 breast,4.43 µM
same,TGI,MDA-MB-468 breast,24.5 µM
same,GI50,HCT-15 colon,33.9 µM
same,TGI,HCT-15 colon,> 100 µM
same,GI50,CAKI-1 renal,34.4 µM
same,TGI,CAKI-1 renal,> 100 µM
same,GI50,PC-3 prostate,27.7 µM
same,TGI,PC-3 prostate,> 100 µM
same,GI50,SF-295 CNS,33.5 µM
same,TGI,SF-295 CNS,> 100 µM
same,GI50,A549 NSCLC,41.1 µM
same,TGI,A549 NSCLC,> 100 µM
same,GI50,HT29 colon,31.7 µM
same,TGI,HT29 colon,> 100 µM
same,GI50,HOP-92 NSCLC,29.2 µM
same,TGI,HOP-92 NSCLC,> 100 µM
same,GI50,K-562 leukemia,8.88 µM
same,TGI,K-562 leukemia,> 100 µM
same,GI50,HOP-62 NSCLC,54.5 µM
same,TGI,HOP-62 NSCLC,> 100 µM
same,GI50,OVCAR-5 ovarian,53.9 µM
same,TGI,OVCAR-5 ovarian,> 100 µM
same,GI50,786-0 renal,31.3 µM
same,TGI,786-0 renal,> 100 µM
same,GI50,TK-10 renal,27.8 µM
same,TGI,TK-10 renal,> 100 µM
same,GI50,BT-549 breast,28 µM
same,TGI,BT-549 breast,> 100 µM
same,GI50,UACC-62 melanoma,52.2 µM
same,TGI,UACC-62 melanoma,> 100 µM
same,GI50,MALME-3M melanoma,28.3 µM
same,TGI,MALME-3M melanoma,> 100 µM
same,GI50,SF-268 CNS,68.6 µM
same,TGI,SF-268 CNS,> 100 µM
same,GI50,DU-145 prostate,41.7 µM
same,TGI,DU-145 prostate,> 100 µM
same,GI50,NCI-H322M lung,41.5 µM
same,TGI,NCI-H322M lung,> 100 µM
same,GI50,OVCAR-8 ovarian,31.6 µM
same,TGI,OVCAR-8 ovarian,> 100 µM
same,GI50,SW-620 colon,61 µM
same,TGI,SW-620 colon,> 100 µM
same,GI50,HCT-116 colon,21 µM
same,TGI,HCT-116 colon,96.7 µM
same,GI50,RXF 393 renal,15.7 µM
same,TGI,RXF 393 renal,76.5 µM
same,GI50,IGROV1 ovarian,28.3 µM
same,TGI,IGROV1 ovarian,> 100 µM
same,GI50,OVCAR-3 ovarian,22.2 µM
same,TGI,OVCAR-3 ovarian,72.3 µM
same,GI50,SNB-19 CNS,42.7 µM
same,TGI,SNB-19 CNS,> 100 µM
same,GI50,UO-31 renal,18.8 µM
same,TGI,UO-31 renal,> 100 µM
same,GI50,EKVX NSCLC,11.2 µM
same,TGI,EKVX NSCLC,98.2 µM
same,GI50,SK-OV-3 ovarian,41.7 µM
same,TGI,SK-OV-3 ovarian,> 100 µM
same,GI50,SNB-75 CNS,29.7 µM
same,TGI,SNB-75 CNS,> 100 µM
same,GI50,LOX IMVI melanoma,53.1 µM
same,TGI,LOX IMVI melanoma,> 100 µM
same,GI50,M14 melanoma,86.2 µM
same,TGI,M14 melanoma,> 100 µM
same,GI50,NCI-H23 lung,8.03 µM
same,TGI,NCI-H23 lung,> 100 µM
same,GI50,ACHN renal,40.2 µM
same,TGI,ACHN renal,> 100 µM
same,GI50,A498 renal,30.4 µM
same,TGI,A498 renal,> 100 µM
same,GI50,SN12C renal,45.5 µM
same,TGI,SN12C renal,> 100 µM
same,GI50,NCI/ADR-RES ovarian,16.2 µM
same,TGI,NCI/ADR-RES ovarian,94.4 µM
same,GI50,SK-MEL-28 melanoma,> 100 µM
same,TGI,SK-MEL-28 melanoma,> 100 µM
same,GI50,RPMI-8226 leukemia,7.2 µM
same,TGI,RPMI-8226 leukemia,21.2 µM
same,GI50,HL-60(TB) leukemia,17.5 µM
same,TGI,HL-60(TB) leukemia,31.3 µM
